According to PMC8125976, “The Total Solubility of the Co-Solubilized PAHs with Similar Structures Indicated by NMR Chemical Shift” (Molecules, 2021):
≈ marks a conversion by molar mass, not a printed value.

Legend:
[1] = water; cited from earlier work
[2] = Solubilization of PAHs in Tween 80 micellar solutions (1H-NMR quantification, MSR); conditions: for MSR (molar solubilization ratio): Tween 80 10-50 mM in D2O, 25 °C; for Synergistic/inhibitory level (RΔMSR), in words: Tween 80
Text: (§1) Molar solubilization ratio (MSR) is used to evaluate the solubilization potential of a surfactant, which is the molar concentration of the solubilized compound per mole of the surfactant concentration when the surfactant concentration is above CMC [37, 38], expressed by: (1) MSR=S−SCMC/C−CMC where S is the apparent solubility of a solute at the surfactant concentration of C, SCMC is the apparent solubility of the solute at CMC. Usually, the slope of the solubility with respect to the surfactant concentration can be considered to be MSR.
(§2) To compare the mutual effects of solutes in co-solubilization systems, the deviation ratio of MSR (RΔMSR) can be used to evaluate the effects of synergistic (RΔMSR > 0) or inhibitory (RΔMSR < 0), which can be expressed by: (2) RΔMSR%=MSRmixture−MSRsingle/MSRsingle×100% where MSRmixture and MSRsingle are the MSR values of solutes in the binary or ternary co-solubilization system and in the single solubilization system, respectively.
(§3) All reagents were used directly without further purification. First, a series of Tween 80 pure solutions at concentrations of 10, 20, 30, 40 and 50 mM and SDS pure solutions at concentrations of 40, 60, 80, 100 and 120 mM were prepared in D2O, respectively. These concentrations were set higher than their CMCs. The solubilization experiment was processed as follows: first, 8 equal 800 μL surfactant solutions at a certain surfactant concentration were injected into eight of 1.5 mL centrifuge cuitubes, respectively. One of them without the addition of PAHs was used as the blank control. […] Next, the surfactant solutions with PAHs solubilized were equilibrated on a reciprocating water bath oscillator at 200 rpm at 25 °C for 48 h. After equilibration, the above solutions were centrifuged at 10,000 rpm for 10 min. Finally, each of 600 μL of supernatant was transferred into 5 mm NMR tubes for further detection.
All NMR experiments were performed at 25 °C using a 500 MHz Agilent ProPulse NMR spectrometer (Agilent Technologies, Santa Clara, CA, USA) equipped with a 5 mm XYZ indirect detection probe and z-direction gradient coils with a maximum nominal gradient strength of 60 G cm^−1. The pulse excitation angle of 30 ° and the relaxation delay time of 5 s in ^1H-NMR experiments were chosen to assure the complete recovery of the magnetization and the accurate quantification. The Sodium Trimethylsilylpropionate (TSP) aqueous solution in the capillary was used as an external reference for the frequency and concentration calibration. […] Based on the resonance integral area of PAHs relative to that of TSP, we calculated their actual apparent concentrations. A total of 16 accumulations were used in 2D NOESY experiments, 1 s was chosen as mixing time. […] Due to the high growth rate of rotating frame overhauser effect (ROE) than that of NOE, ROESY experiments for Tween 80 systems were conducted instead of NOESY to avoid the possible spin diffusion effect in NOESY with the long mixing time. The parameters of the 2D ROESY experiments were the same as the NOESY experiments except that the mixing time was 0.2 s. MestReNova software (version 14.0.0, Mestrelab Research, Santiago de Compostella, Spain) was used to process all NMR data.

[3] = Solubilization of PAHs in SDS micellar solutions (1H-NMR quantification, MSR); conditions: for MSR (molar solubilization ratio): SDS 40-120 mM in D2O, 25 °C; for Synergistic/inhibitory level (RΔMSR), in words / solubility increase (RΔMSR) compared to single system: SDS
Text: as §1, §2, §3
All NMR experiments were performed at 25 °C using a 500 MHz Agilent ProPulse NMR spectrometer (Agilent Technologies, Santa Clara, CA, USA) equipped with a 5 mm XYZ indirect detection probe and z-direction gradient coils with a maximum nominal gradient strength of 60 G cm^−1. The pulse excitation angle of 30 ° and the relaxation delay time of 5 s in ^1H-NMR experiments were chosen to assure the complete recovery of the magnetization and the accurate quantification. The Sodium Trimethylsilylpropionate (TSP) aqueous solution in the capillary was used as an external reference for the frequency and concentration calibration. […] Based on the resonance integral area of PAHs relative to that of TSP, we calculated their actual apparent concentrations. A total of 16 accumulations were used in 2D NOESY experiments, 1 s was chosen as mixing time.

[4] = binary Phe-Ant system vs single
[5] = binary Phe-Pyr system vs single
[6] = ternary Phe-Ant-Pyr system vs single
[7] = binary Ant-Pyr system vs single

| SMILES | MSR (molar solubilization ratio) ([2]; binary Phe-Ant system) | MSR (molar solubilization ratio) ([2]; single solubilization system) | MSR (molar solubilization ratio) ([2]; ternary Phe-Ant-Pyr system) | Synergistic/inhibitory level (RΔMSR), in words [2, 4] | Synergistic/inhibitory level (RΔMSR), in words [2, 6] | MSR (molar solubilization ratio) ([3]; binary Phe-Ant system) | MSR (molar solubilization ratio) ([3]; single solubilization system) | MSR (molar solubilization ratio) ([3]; ternary Phe-Ant-Pyr system) | Synergistic/inhibitory level (RΔMSR), in words [3, 4] | Synergistic/inhibitory level (RΔMSR), in words [3, 6] | also measured |
| --- | --- | --- | --- | --- | --- | --- | --- | --- | --- | --- | --- |
| c1ccc2c(c1)ccc1ccccc12 [Phe, phenanthrene] | 0.0894 | 0.1170 | 0.0694 | inhibition | inhibition | 0.0095 | 0.0089 | 0.0166 | synergism | synergism | aqueous solubility [1]: 5.55 µM (≈ 0.989 µg/mL); MSR (molar solubilization ratio) ([2]; binary Phe-Pyr system): 0.1216; Synergistic/inhibitory level (RΔMSR), in words [2, 5]: synergism; MSR (molar solubilization ratio) ([3]; binary Phe-Pyr system): 0.0157; solubility increase (RΔMSR) compared to single system ([3]; binary Phe-Pyr system): 76.4%; Synergistic/inhibitory level (RΔMSR), in words [3, 5]: synergism; solubility increase (RΔMSR) compared to single system ([3]; ternary Phe-Ant-Pyr system): 86.5% |
| c1ccc2cc3ccccc3cc2c1 [Ant, anthracene] | 0.0084 | 0.0094 | 0.0080 | slight inhibition | slight inhibition | 0.0011 | 0.0011 | 0.0013 | neither Phe nor Pyr contributes to the solubility increase | slight synergism | MSR (molar solubilization ratio) ([2]; binary Ant-Pyr system): 0.0081; Synergistic/inhibitory level (RΔMSR), in words [2, 7]: slight inhibition; MSR (molar solubilization ratio) ([3]; binary Ant-Pyr system): 0.0011; Synergistic/inhibitory level (RΔMSR), in words [3, 7]: neither Phe nor Pyr contributes to the solubility increase |
